Test results from paper PMC12427763 (2025).
Values belong to the compound of their own block, whether it stands above or below them.

Experiments:
[1] = test system: 5'-biotin c-myb IM (DNA, i motif) TCCTCCTCCTCCTTCTCCTCCTCCTCCGTGACCTCCTCCTCC; assay: SPR; conditions: K+ 100 mM; 20 mM MES pH 5.5, 5% DMSO
[2] = test system: 5'-biotin c-myb G4 (DNA, G4) GGAGGAGGAGGTCACGGAGGAGGAGGAGAAGGAGGAGGAGGA; assay: SPR; conditions: K+ 100 mM; 50 mM Tris-HCl pH 7.4, 5% DMSO
[3] = test system: c-myb IM (5'-FAM) (DNA, i motif) TCCTCCTCCTCCTTCTCCTCCTCCTCCGTGACCTCCTCCTCC; assay: MST; conditions: K+ 100 mM, 20 mM MES pH 5.5
[4] = test system: c-myb G4 (5'-FAM) (DNA, G4) GGAGGAGGAGGTCACGGAGGAGGAGGAGAAGGAGGAGGAGGA; assay: MST; conditions: K+ 100 mM; 50 mM Tris-HCl pH 7.4
[5] = test system: c-Jun IM (DNA, i motif) TAACCCCCTCCCCCTCCCCCCTTTAAT; assay: SPR; conditions: K+ 100 mM; 20 mM MES pH 5.5, 5% DMSO
[6] = test system: c-Jun G4 (DNA, G4) AAGGGGGGAGGGGGAGGGGGTT; assay: SPR; conditions: K+ 100 mM; 50 mM Tris-HCl pH 7.4, 5% DMSO
[7] = test system: Rb IM (DNA, i motif) GCCGCCCAAAACCCCCCG; assay: SPR; conditions: K+ 100 mM; 20 mM MES pH 5.5, 5% DMSO
[8] = test system: Bcl-2 IM (DNA, i motif) CAGCCCCGCTCCCGCCCCCTTCCTCCCGCGCCCGCCCCT; assay: SPR; conditions: K+ 100 mM; 20 mM MES pH 5.5, 5% DMSO
[9] = test system: Bcl-2 G4 (DNA, G4) GGGCGGGCGCGGGAGGAAGGGGGCGGG; assay: SPR; conditions: K+ 100 mM; 50 mM Tris-HCl pH 7.4, 5% DMSO
[10] = test system: Ret IM (DNA, i motif) CCCCGCCCCGCCCCGCCCCTA; assay: SPR; conditions: K+ 100 mM; 20 mM MES pH 5.5, 5% DMSO
[11] = test system: Kras G4 (DNA, G4) AGGGCGGTGTGGGAAGAGGGAAGAGGGGGAGG; assay: SPR; conditions: K+ 100 mM; 50 mM Tris-HCl pH 7.4, 5% DMSO
[12] = test system: Hras G4 (DNA, G4) TTGAGGGTGGGTAGGGTGGGTAAA; assay: SPR; conditions: K+ 100 mM; 50 mM Tris-HCl pH 7.4, 5% DMSO
[13] = test system: HIF-1α IM (5'-FAM) (DNA, i motif) GCCCGAGCGCGCCTCCGCCCTTGCCCGCCCCCTG; assay: MST; conditions: K+ 100 mM; 20 mM MES pH 5.5
[14] = test system: Kras IM (5'-FAM) (DNA, i motif) CCTCCCCCTCTTCCCTCTTCCCACACCGCCCT; assay: MST; conditions: K+ 100 mM; 20 mM MES pH 5.5
[15] = test system: c-Jun IM (5'-FAM) (DNA, i motif) TAACCCCCTCCCCCTCCCCCCTTTAAT; assay: MST; conditions: K+ 100 mM; 20 mM MES pH 5.5
[16] = test system: c-Jun G4 (5'-FAM) (DNA, G4) AAGGGGGGAGGGGGAGGGGGTT; assay: MST; conditions: K+ 100 mM; 50 mM Tris-HCl pH 7.4
[17] = test system: Ret IM (5'-FAM) (DNA, i motif) CCCCGCCCCGCCCCGCCCCTA; assay: MST; conditions: K+ 100 mM; 20 mM MES pH 5.5
[18] = test system: Rb IM (5'-FAM) (DNA, i motif) GCCGCCCAAAACCCCCCG; assay: MST; conditions: K+ 100 mM; 20 mM MES pH 5.5
[19] = test system: Kras G4 (5'-FAM) (DNA, G4) AGGGCGGTGTGGGAAGAGGGAAGAGGGGGAGG; assay: MST; conditions: K+ 100 mM; 50 mM Tris-HCl pH 7.4
[20] = test system: c-myb IM (DNA, i motif) TCCTCCTCCTCCTTCTCCTCCTCCTCCGTGACCTCCTCCTCC; assay: TO displacement, fluorescence; conditions: K+ 100 mM plus potassium phosphate; BPES pH 5.5, 1 mM EDTA; tracer thiazole orange 2 μM
[21] = test system: c-myb G4 (DNA, G4) GGAGGAGGAGGTCACGGAGGAGGAGGAGAAGGAGGAGGAGGA; assay: TO displacement, fluorescence; conditions: K+ 100 mM; 50 mM Tris-HCl pH 7.4; tracer thiazole orange 2 μM

KD [1]: 3.34 µM
KD [2]: 5.15 µM
KD [3]: 2.11 ± 0.71 µM
KD [4]: 8.53 ± 3.22 µM
Compound: O=C1c2cccc3c(-n4cc(-c5ccc6c(c5)c5ccccc5n6CCN5CCCC5)nn4)ccc(c23)C(=O)N1CCN1CCCC1

KD [1]: 0.58 µM
KD [2]: 1.10 µM
KD [3]: 1.04 ± 0.40 µM
KD [4]: 1.43 ± 0.64 µM
KD [5]: 18.70 µM
KD [6]: 32.90 µM
KD [7]: 7.70 µM
KD [8]: 18.50 µM
KD [9]: 23.60 µM
KD [10]: 7.71 µM
KD [11]: 27.50 µM
KD [12]: 29.10 µM
KD [13]: 14.19 µM
KD [14]: 20.59 µM
KD [15]: 34.42 µM
KD [16]: > 50 µM
KD [17]: 18.00 µM
KD [18]: 20.93 µM
KD [19]: 19.90 µM
DC50 [20]: 0.8 µM
DC50 [21]: 1.0 µM
Compound: O=C1c2cccc3cc(-c4ccc5c(c4)c4cc(-c6cn(CCN7CCCC7)nn6)ccc4n5CCN4CCCC4)cc(c23)C(=O)N1CCN1CCCC1

KD [1]: 12.90 µM
KD [2]: 3.03 µM
KD ([3]; supplement prints 10.39 ± 2.67): 10.06 ± 2.67 µM
KD [4]: 1.11 ± 0.52 µM
Compound: O=C1c2cccc3cc(-c4ccc5c(c4)c4ccccc4n5CCN4CCCC4)cc(c23)C(=O)N1CCN1CCCC1
